# Biological target: T1, human cathepsin L (Homo sapiens, UniProt P07711)
# T1 construct: purchased CN Biosciences
# Test: Cathepsin L peptidase activity assay (Ki)
# Type: biochemical
# Conditions: read-out: Ki, inhibitors of cathepsin L
# Protocol: Unless otherwise stated, all general chemicals and biochemicals were purchased from either the Sigma Chemical Company, Poole, Dorset, U.K or from Fisher Scientific UK, Loughborough, Leicestershire, U.K. Absorbance assays were carried out in flat-bottomed 96-well plates (Spectra; Greiner Bio-One Ltd., Stonehouse, Gloucestershire, U.K.) using a SpectraMax PLUS384 plate reader (Molecular Devices, Crawley, U.K.). Fluorescence high throughput assays were carried out in either 384-well microtitre plates (Corning Costar 3705 plates, Fisher Scientific) or 96-well ‘U’ bottomed Microfluor W1 microtitre plates (Thermo Labsystems, Ashford, Middlesex, U.K.). Fluorescence assays were monitored using a SpectraMax Gemini fluorescence plate reader (Molecular Devices). For substrates employing either a 7-amino-4-methylcoumarin (AMC) or a 7-amino-4-trifluoromethylcoumarin (AFC) fluorophore, assays were monitored at an excitation wavelength of 365 nm and an emission wavelength of 450 nm and the fluorescence plate reader calibrated with AMC. For substrates employing a 3-amino-benzoyl (Abz) fluorophore, assays were monitored at an excitation wavelength of 310 nm and an emission wavelength of 445 nm; the fluorescence plate reader calibrated with 3-amino-benzamide (Fluka). Unless otherwise indicated, all the peptidase substrates were purchased from Bachem UK, St Helens, Merseyside, UK. Substrates utilizing fluorescence resonance energy transfer methodology (i.e. FRET-based substrates) were synthesized at Incenta Limited using published methods (Atherton & Sheppard, Solid Phase Peptide Synthesis, IRL Press, Oxford, U.K, 1989) and employed Abz (2-aminobenzoyl) as the fluorescence donor and 3-nitro-tyrosine [Tyr(NO2)] as the fluorescence quencher (Meldal, M. and Breddam, K., Anal. Biochem, 195, 141-147, 1991). Hydroxyethylpiperazine ethanesulfonate (HEPES), tris-hydroxylmethyl aminomethane (tris) base, bis-tris-propane and all the biological detergents (e.g. CHAPS, zwittergents, etc.) were purchased from CN Biosciences UK, Beeston, Nottinghamshire, U.K. Glycerol was purchased from Amersham Pharmacia Biotech, Little Chalfont, Buckinghamshire, U.K. Stock solutions of substrate or inhibitor were made up to 10 mM in 100% dimethylsulfoxide (DMSO) (Rathburns, Glasgow, U.K.) and diluted as appropriately required. In all cases the DMSO concentration in the assays was maintained at less than 1% (vol./vol.).
# Assay protocols were based on literature precedent (Table 4; Barrett, A. J., Rawlings, N. D. and Woessner, J. F., 1998, Handbook of Proteolytic Enzymes, Academic Press, London and references therein) and modified as required to suit local assay protocols. Enzyme was added as required to initiate the reaction and the activity, as judged by the change in fluorescence upon conversion of substrate to product, was monitored over time. All assays were carried out at 25±1° C.
# Bovine cathepsin S, human cathepsin L, human cathepsin H and human cathepsin B were obtained from CN Biosciences. Recombinant human cathepsin S, human cathepsin K and human cathepsin X were obtained from Dr. Boris Turk (Josef Stefan Institute, Ljubljana, Slovenia). Unless otherwise stated, all peptidase activity assays were carried out in 10 mM bis-tris-propane (BTP), pH 6.5 containing 1 mM EDTA, 5 mM 2-mercaptoethanol and 1 mM CaCl2. Human cathepsin H activity assays were carried out in 10 mM BTP pH 6.5, 142 mM NaCl2, 1 mM CaCl2, 1 mM EDTA, 1 mM DTT, 0.035 mM Zwittergent 3-16. Human cathepsin K assays were carried out in 100 mM sodium acetate; pH 5.5 containing 20 mM L-cysteine and 1 mM EDTA (Bossard, M. J., et. al., J. Biol. Chem., 21, 12517-12524, 1996). Human cathepsin X assays were carried out in 100 mM sodium acetate; pH 5.5 containing 20 mM L-cysteine; 0.05% (w/v) Brij 35 and 1 mM EDTA (Santamaria, I., et. al., J. Biol. Chem., 273, 16816-16823, 1998; Klemencic, J, et al., Eur. J. Biochem., 267, 5404-5412, 2000). […]
# T1 sequence (P07711 114-333): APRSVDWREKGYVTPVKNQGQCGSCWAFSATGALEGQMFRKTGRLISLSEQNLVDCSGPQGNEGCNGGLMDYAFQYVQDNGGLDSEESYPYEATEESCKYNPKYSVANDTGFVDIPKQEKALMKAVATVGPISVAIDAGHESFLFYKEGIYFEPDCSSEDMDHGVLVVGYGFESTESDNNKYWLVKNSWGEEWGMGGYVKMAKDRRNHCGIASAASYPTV
row,Structure (SMILES),Ki [µM]
1,"O=C(N[C@@H](CSCc1ccccc1)C(=O)N1CC[C@@H]2[C@H]1C(=O)CN2C(=O)c1ccsc1)c1ccsc1 [Example 272, (3aR,6aS)-Thiophene-3-carboxylic acid {(1R)-1-benzylsulfanylmethyl-2-oxo-2-[6-oxo-4-(thiophene-3-carbonyl)-hexahydro-pyrrolo[3,2-b]pyrrol-1-yl]-ethyl}-amide]",< 5
2,"O=C1CN(C(=O)c2ccccc2)[C@@H]2CCN(C(=O)[C@H](CC3CCCCC3)NC(=O)N3CCOCC3)[C@H]12 [Example 280, (3aR,6aS)-Morpholine-4-carboxylic acid [(1S)-2-(4-benzoyl-6-oxo-hexahydro-pyrrolo[3,2-b]pyrrole-1-yl)-1-cyclohexylmethyl-2-oxo-ethyl]-amide]",< 5
3,"O=C(N[C@@H](CSCc1ccccc1)C(=O)N1CC[C@@H]2[C@H]1C(=O)CN2C(=O)c1ccccc1)c1cccs1 [Example 282, (3aR,6aS)-Thiophene-2-carboxylic acid [(1R)-2-(4-benzoyl-6-oxo-hexahydro-pyrrolo[3,2-b]pyrrole-1-yl)-1-benzylsulfanylmethyl-2-oxo-ethyl]-amide]",< 5
4,"O=C(N[C@@H](CSCc1ccccc1)C(=O)N1CC[C@@H]2[C@H]1C(=O)CN2C(=O)c1ccccc1)c1ccccc1 [Example 285, (3aR,6aS)-N-[(1R)-2-(4-Benzoyl-6-oxo-hexahydro-pyrrolo[3,2-b]pyrrol-1-yl)-1-benzylsulfanylmethyl-2-oxo-ethyl]-benzamide]",< 5
5,"O=C(N[C@@H](CC1CCCCC1)C(=O)N1CC[C@@H]2[C@H]1C(=O)CN2C(=O)c1ccccc1)c1ccoc1 [Example 289, (3aR,6aS)-Furan-3-carboxylic acid [(1S)-2-(4-benzoyl-6-oxo-hexahydro-pyrrolo[3,2-b]pyrrole-1-yl)-1-cyclohexylmethyl-2-oxo-ethyl]-amide]",< 5
6,"Cc1ccccc1C(=O)N1CC(=O)[C@@H]2[C@H]1CCN2C(=O)[C@H](CC1CCCCC1)NC(=O)c1ccsc1 [Example 291, (3aR,6aS)-Thiophene-3-carboxylic acid {(1S)-1-cyclohexylmethyl-2-[4-(2-methyl-benzoyl)-6-oxo-hexahydro-pyrrolo[3,2-b]pyrrol-1-yl]-2-oxo-ethyl}-amide]",< 5
7,"Cc1ccc(C(=O)N2CC(=O)[C@@H]3[C@H]2CCN3C(=O)[C@H](CC2CCCCC2)NC(=O)c2ccsc2)cc1 [Example 293, (3aR,6aS)-Thiophene-3-carboxylic acid {(1S)-1-cyclohexylmethyl-2-[4-(4-methyl-benzoyl)-6-oxo-hexahydro-pyrrolo[3,2-b]pyrrol-1-yl]-2-oxo-ethyl}-amide]",< 5
8,"CN(C)c1ccc(C(=O)N[C@@H](Cc2ccc(O)cc2)C(=O)N2CC[C@@H]3[C@H]2C(=O)CN3C(=O)c2ccccc2)cc1 [Example 356, (3aR,6aS)-N-[(1S)-2-(4-Benzoyl-6-oxo-hexahydro-pyrrolo[3,2-b]pyrrol-1-yl)-1-(4-hydroxy-benzyl)-2-oxo-ethyl)-4-dimethylamino-benzamide]",< 5
9,"CN(C)c1ccc(C(=O)N[C@@H](Cc2ccc(O)cc2)C(=O)N2CC[C@@H]3[C@H]2C(=O)CN3C(=O)c2ccccc2S(C)(=O)=O)cc1 [Example 357, (3aR,6aS)-4-Dimethylamino-N-{(1S)-1-(4-hydroxy-benzyl)-2-[4-(2-methanesulfonyl-benzoyl)-6-oxo-hexahydro-pyrrolo[3,2-b]pyrrole-1-yl]-2-oxo-ethyl}-benzamide]",< 5
10,"CN(C)c1ccc(C(=O)N[C@@H](Cc2ccc(O)cc2)C(=O)N2CC[C@@H]3[C@H]2C(=O)CN3C(=O)c2cccc(S(C)(=O)=O)c2)cc1 [Example 358, (3aR,6aS)-4-Dimethylamino-N-{(1S)-1-(4-hydroxy-benzyl)-2-[4-(3-methanesulfonyl-benzoyl)-6-oxo-hexahydro-pyrrolo[3,2-b]pyrrol-1-yl]-2-oxo-ethyl}-benzamide]",< 5
